Measured values reported in publication PMC5946847, “Synthesis and biological evaluation of aryl-oxadiazoles as inhibitors of Mycobacterium tuberculosis” (Bioorganic & Medicinal Chemistry Letters, 2018).
Converted amounts (≈) assume the structure as drawn.

Legend:
[1] = Mouse microsomal stability; assay type: in vitro ADME; settings: mouse, microsomes; for Mouse microsome (% metabolized in 30 min): 0.5 h, 2 μM
Method: 4. Method for microsomal stability:
To determine microsomal turnover, test compounds were incubated (2 μM) with liver microsomes in the presence of NADPH, and loss of parent molecule was measured by LC-MS after 30 min.

[2] = in vitro; assay type: in vitro ADME; settings: mouse, plasma
From the text: Fraction unbound in mouse plasma:^8

[3] = Mouse pharmacokinetic studies (intravenous and oral); assay type: in vivo; settings: for AUC0–24: 24 h
Method: 5. Method for PK studies:
In Vivo Pharmacokinetic Studies. Compounds 1, 2 and 3 were administered intravenously at 1 mg/kg (1 ml/kg) in Dimethyl acetamide 25%v/v, ethanol 15%v/v, propylene glycol 10%v/v, 2 pyrrolidone 25%v/v, PW 25%v/v in fed animal, or orally at 10 mg/kg (10 ml/kg) in Hydroxyethylcellulose 1% w/v/polysorbate 80 0.25% v/v/Antifoam 1510-US 0.05% v/v/PW (probe sonicate), in fasted animals, respectively. Additional study was conducted for compound 2 wherein the animals were dosed 1-aminobenzotriazole (100 mpk) intraperitoneally one hour prior to dosing compound 2 either intravenously (fed animals) at 1 mg/kg or orally (fasted animals) at 10 mg/kg. Three animals were dosed per study arm.
Serial blood samples were collected at 0.08, 0.25, 0.75, 2, 4, 8, 24 for intravenous and 0.25, 0.5, 1, 2, 4, 8, 24 for oral administration. The blood was collected via a tail snip directly into a 20-μL EDTA-coated capillary and immediately spotted onto a Whatman DMPK-C dried blood sample (DBS) card and analysed using LC-MS/MS, as described previously.^7 Noncompartmental pharmacokinetic parameters were calculated using Watson version 7.4 (Thermo Scientific, Waltham, MA).

[4] = physchem

SMILES	CLint scaled at 2 μM [1] [mL/min/kg]	Mouse microsome (% metabolized in 30 min) [1] [%]	fraction unbound at 4.5 h, 1 µM [2]	AUC,u0–24 ([3]; in vivo, iv, 1 mg/kg) [ng·h/mL]	CL,u ([3]; in vivo, iv, 1 mg/kg) [mL/min/kg]	Cl ([3]; in vivo, iv, 1 mg/kg) [mL/min/kg]	Vdss ([3]; in vivo, iv, 1 mg/kg) [L/kg]	Cmax ([3]; in vivo, po, 10 mg/kg) [ng/mL]	Cmax,u ([3]; in vivo, po, 10 mg/kg) [ng/mL]	Tmax ([3]; in vivo, po, 10 mg/kg) [h]	AUC(0-t) at 24 h ([3]; in vivo, po, 10 mg/kg, AUC0–24) [ng·h/mL]	t1/2 ([3]; intravenous 1 mg/kg) [h]	solubility ([4]; pH 7.4) [µg/mL]	also measured
c1csc(-c2nnc(Cc3cccc4ccccc34)o2)c1 [Compound 1]	3310	99	0.011	32	1727	19	0.9	19	0.2	2.75	31	1.2	< 1	AUC(0-t) ([3]; in vivo, iv, 1 mg/kg, AUC0–24): 2900 ng·h/mL
CN(Cc1nnc(-c2ccco2)o1)Cc1c(F)cccc1Cl [Compound 2]	1350	99	0.123	37	455	56	1.1	31	3.8	0.25		0.3	77 (≈ 239 µM)	AUC0–24 ([3]; in vivo, iv, 1 mg/kg): 300 ng·h/mL; Increase of oral exposure when co-administered with ABT ([3]; in vivo, po, 10 mg/kg): > 10 fold; AUC0–24 ([3]; in vivo, po, 10 mg/kg): 48 ng·h/mL; half-life ([3]; whole blood, intravenous 1 mg/kg, co-administered with ABT (100 mg/kg, 1 h pre-dose)): 1.7 h; solubility ([4]; pH 6): 49 µg/mL (≈ 152 µM)
CC1CCc2ccccc2N1Cc1nc(-c2ccsc2)no1 (centres unmarked) [Compound 3]	1910	65		6	2733	41	6.3	9	0.1	0.25	10	2.9	5 (≈ 16.1 µM)	fraction unbound [2]: < 0.015; AUC(0-t) at 24 h ([3]; in vivo, iv, 1 mg/kg, AUC0–24): 430 ng·h/mL
CN(Cc1nnc(-c2ccco2)o1)Cc1c(F)cccc1Cl.O=C(O)/C=C\C(=O)O [Compound 2 maleate salt]														Aqueous solubility at pH 6 (pH 6): 0.687 mg/mL; Aqueous solubility at pH 7.4 (pH 7.4): 0.717 mg/mL
